Reference: patent US20110053901A1, “ACETYL MIMIC COMPOUNDS FOR THE INHIBITION OF ISOPRENYL-S-CYSTEINYL METHYLTRANSFERASE” (SIGNUM BIOSCIENCES, INC., priority 2008, published 2011)

Columns and labels:
dermal inflammation = settings: mice; cited from earlier work
[1] = molecular target: membrane-associated isoprenyl-S-cysteinyl methyltransferase (Homo sapiens, UniProt O60725); settings: cited from earlier work
TPA-treated ears of mice [2] = assay: Mouse ear model of TPA-induced contact inflammation: edema inhibition (ear thickness); format: in vivo; settings: topical on TPA-treated mouse ear, 24 hours; for inhibition in vivo at 0.2 mg: dose 0.2 mg/20 μL; for inhibition in vivo at 0.8 mg: dose 0.8 mg/20 μL
Description: (§1) G. et al., Anti-inflammatory Drugs, Clin. Pharmacol. Ther. 16, 900-4 (1974); Young et al., Tachyphylaxis in 12-Otetradecanoylphorbolacetate-and Arachidonic Acid-Induced Ear Edema; J. Invest. Dermatol. 80:48-52, (1983); Tramposch et al., In Vivo Models of Inflammation, (Morgan D W, Marshall L A eds), Birkha{umlaut over ( )}user Verlag: Basel, pp 179-204, 1999; and Gordon et al., Topical N-Acetyl-S-Farnesyl-L-Cysteine Inhibits Mouse Skin Inflammation, and Unlike Dexamethasone, Its Effects Are Restricted to the Application Site, J. Invest. Dermatol., 128(3):643-54, 2008 March)]. Moreover, the mouse ear model has been used by various groups to identify and compare members of differing classes of anti-inflammatory agents with multiple mechanisms of action (reviewed in Tramposch et al., 1999, supra).
The protocol for inducing in vivo acute contact inflammation on the ears of live mice has been described elsewhere (reviewed in Tramposch, 1999, supra). In brief, mice were sedated and their ears were treated with 1.2 μg/20 uL TPA (i.e., tetradecanoylphorbol-13-acetate). […] After 24 hours, the mice were sacrificed and edema was measured by taking micrometer readings of each ear. The percent inhibition of edema was determined by taking the average ear thickness of compound-treated ears and dividing it by the average thickness of 12 ears that only received TPA and subtracting that value from 100%. These values were corrected for the thickness of normal, non TPA-treated mouse ears of littermate controls. […] ED50 values were calculated as described in Gordon et al., “Topical N-acetyl-S-farnesyl-L-cysteine Inhibits Mouse Skin Inflammation, and Unlike Dexamethasone, its Effects Are Restricted to the Application Site”, J. Invest. Derm., Vol. 128 pp. 643-654 (2008).

[3] = tested on: myeloperoxidase (MPO), neutrophil marker in TPA-treated ears; assay: Mouse ear model of TPA-induced contact inflammation: MPO inhibition (dermal neutrophil infiltration); format: in vivo; settings: topical on TPA-treated mouse ear, 6 mm biopsy punches; for inhibition in vivo at 0.2 mg: dose 0.2 mg/20 μL; for inhibition in vivo at 0.8 mg: dose 0.8 mg/20 μL
Description: as §1
To assay for inhibition of dermal neutrophil infiltration by S-isoprenyl and S-farnesyl cysteine compounds, a standard method was used (see Bradley et al., 1982, supra; Young et al., 1983, supra; De Young et al, “Edema and Cell Infiltration in the Phorbol Ester-treated Mouse Ear are Temporally Separate and can be Differentially Modulated by Pharmacologic Agents”, Agents Actions, 26(3-4): 335-41 (March 1989); and Rao et al. (1993) Comparative Evaluation of Arachidonic Acid (AA)-and Tetradecanoylphorbol Acetate (TPA)-Induced Dermal Inflammation, Inflammation 17:723-41). Briefly, we homogenized 6 mm biopsy punches taken from both compound-treated ears as well as TPA-treated and non-treated control groups. We quantitated the levels of MPO by a colorimetric reaction that was measured spectrophotometrically. The percent inhibition of neutrophil infiltration by each S-isoprenyl and S-farnesyl cysteine compound was determined by comparing the average MPO levels in the presence and absence of these compounds. The calculation for percent inhibition of MPO was determined similar to that as described for calculating the percent edema inhibition, see the Edema Inhibition protocol, supra. […] Gordon et al., “Topical N-acetyl-S-farnesyl-L-cysteine Inhibits Mouse Skin Inflammation, and Unlike Dexamethasone, its Effects Are Restricted to the Application Site”, J. Invest. Derm., Vol. 128 pp. 643-654 (2008).

TPA-treated ears of mice [4] = assay: Mouse ear model of TPA-induced contact inflammation: erythema inhibition (Δa* redness, chroma meter); format: in vivo; settings: dose 0.2 mg/20 μL, topical on TPA-treated mouse ear, 24 hours post treatment
Description: as §1
Another well documented biomarker of skin inflammation is skin redness, termed erythema, which is caused by capillary congestion and dilation in response to various chemical and environmental insults (see Denig, N. I. et al., Irritant Contact Dermatitis. Clues to Causes, Clinical Characteristics, and Control, Postgrad Med., May (1998); 103(5):199-200, 207-8, 212-3). […]

Chain of membrane-associated isoprenyl-S-cysteinyl methyltransferase (O60725 whole entry): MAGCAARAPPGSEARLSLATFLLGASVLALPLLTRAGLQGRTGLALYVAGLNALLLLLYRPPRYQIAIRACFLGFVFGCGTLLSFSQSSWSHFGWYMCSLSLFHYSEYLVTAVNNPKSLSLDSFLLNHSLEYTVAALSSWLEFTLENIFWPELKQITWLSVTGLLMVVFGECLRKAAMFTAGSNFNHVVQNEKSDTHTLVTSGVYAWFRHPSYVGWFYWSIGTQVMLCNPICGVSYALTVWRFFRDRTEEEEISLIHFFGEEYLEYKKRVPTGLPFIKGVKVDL

| Structure (SMILES) | inhibition in vivo at 0.2 mg (TPA-treated ears of mice [2]) | inhibition in vivo at 0.8 mg (TPA-treated ears of mice [2]) | inhibition in vivo at 0.8 mg [3] | other results |
| --- | --- | --- | --- | --- |
| CC(=O)N[C@@H](CSC/C=C(\C)CC/C=C(\C)CCC=C(C)C)C(=O)O [AFC, N-acetyl-S-farnesyl-L-cysteine] |  |  |  | effect on dermal inflammation (dermal inflammation): effectively reduces dermal inflammation; inhibition of isoprenyl-S-cysteinyl methyltransferase (mode) [1]: competitive inhibitor |
| CNC(=S)N[C@@H](CSC/C=C(\C)CC/C=C(\C)CCC=C(C)C)C(=O)O [Compound A] | 8.55 ± 3.7% |  |  | inhibition in vivo at 0.2 mg [3]: 8.8 ± 6.29% |
| CC/N=C(\NCC)N[C@@H](CSC/C=C(\C)CC/C=C(\C)CCC=C(C)C)C(=O)O [Compound B] |  |  |  | % Inhibition Erythema (TPA-treated ears of mice [4]): 0.51 ± 10.81 — % |
| CC(C)=CCC/C(C)=C/CC/C(C)=C/CSC[C@H](NC(=O)N1CCOCC1)C(=O)O [Compound C] |  | 34.1% | 61.8% |  |
| CC(C)=CCC/C(C)=C/CC/C(C)=C/CSC[C@H](NC(=O)N1CCCCC1)C(=O)O [Compound D] |  | 32.6% | 83.7% |  |
| CC(C)=CCC/C(C)=C/CC/C(C)=C/CSC[C@H](NC(=O)Nc1ccccc1)C(=O)O [Compound E] |  | 18.2% | 75.4% |  |
| CC(C)=CCC/C(C)=C/CC/C(C)=C/CSC[C@H](NC(=O)N(c1ccccc1)c1ccccc1)C(=O)O [Compound F] |  | 4.66% | 79.5% |  |
| CC(C)=CCC/C(C)=C/CC/C(C)=C/CSC[C@H](NC(=O)N1CCNC1=O)C(=O)O [Compound G] |  | 13.4% | 58% |  |
| CC(C)=CCC/C(C)=C/CC/C(C)=C/CSC[C@H](Nc1ccnc(N)n1)C(=O)O [Compound H] | 39.7 ± 1.67% | 50.1% | 89% | inhibition in vivo at 0.2 mg [3]: 63.5 ± 7.03% |
| CC(C)=CCC/C(C)=C/CC/C(C)=C/CSC[C@H](Nc1ccnc(NN)n1)C(=O)O [Compound I] | 24.7 ± 16.5% |  |  | inhibition in vivo at 0.2 mg [3]: 23.1 ± 6.79% |
| CC(C)=CCC/C(C)=C/CC/C(C)=C/CSC[C@H](Nc1ncccn1)C(=O)O [Compound J] | 1.89 ± 7.75% |  |  |  |
